In ChEMBL document CHEMBL5724914, “Linking interpersonal differences in gut microbiota composition and drug biotransformation activity” (2024):

Settings: human gut metagenome, 24 h, 2 µM
Note: call rule not given here.

Bacterial Biotransformation | SMILES
Compound NOT metabolized | CCOc1ccc(NC(C)=O)cc1 [PHENACETIN]
Compound metabolized | CC(C(=O)O)c1ccc2c(c1)Cc1cccnc1O2 (stereo not given) [PRANOPROFEN]
Compound metabolized | O=C(CCCN1CCC(O)(c2ccc(Cl)cc2)CC1)c1ccc(F)cc1 [HALOPERIDOL]

Settings: human gut metagenome, 24 h, 2 µM
Remark: another data set of the same source

Bacterial Biotransformation | SMILES
Compound NOT metabolized | CCOc1ccc(NC(C)=O)cc1 [PHENACETIN]
Compound metabolized | CC(C(=O)O)c1ccc2c(c1)Cc1cccnc1O2 (stereo not given) [PRANOPROFEN]
Compound NOT metabolized | O=C(CCCN1CCC(O)(c2ccc(Cl)cc2)CC1)c1ccc(F)cc1 [HALOPERIDOL]

Assay: (§1) The drug is tested on Z-030 corresponding to mouse gut metagenome with ENA study accession number: PRJEB37062 and ENA sample accession number: ERS12561829 for biotransformation under anaerobic condition. The drug concentrations were measured over 9 timepoints collected between 0 and 24 hours of incubation by liquid-chromatography-coupled mass spectrometry (LC–MS)
Settings: 2 µM

Bacterial Biotransformation | SMILES
Compound NOT metabolized | CCOc1ccc(NC(C)=O)cc1 [PHENACETIN]
Compound metabolized | CC(C(=O)O)c1ccc2c(c1)Cc1cccnc1O2 (stereo not given) [PRANOPROFEN]
Compound NOT metabolized | O=C(CCCN1CCC(O)(c2ccc(Cl)cc2)CC1)c1ccc(F)cc1 [HALOPERIDOL]

Settings: human gut metagenome, 24 h, 2 µM
Remark: another data set of the same source

Bacterial Biotransformation | SMILES
Compound NOT metabolized | CCOc1ccc(NC(C)=O)cc1 [PHENACETIN]
Compound metabolized | CC(C(=O)O)c1ccc2c(c1)Cc1cccnc1O2 (stereo not given) [PRANOPROFEN]
Compound metabolized | O=C(CCCN1CCC(O)(c2ccc(Cl)cc2)CC1)c1ccc(F)cc1 [HALOPERIDOL]

Settings: human gut metagenome, 24 h, 2 µM
Remark: another data set of the same source

Bacterial Biotransformation | SMILES
Compound NOT metabolized | CCOc1ccc(NC(C)=O)cc1 [PHENACETIN]
Compound metabolized | CC(C(=O)O)c1ccc2c(c1)Cc1cccnc1O2 (stereo not given) [PRANOPROFEN]
Compound NOT metabolized | O=C(CCCN1CCC(O)(c2ccc(Cl)cc2)CC1)c1ccc(F)cc1 [HALOPERIDOL]

Settings: human gut metagenome, 24 h, 2 µM
Remark: another data set of the same source

Bacterial Biotransformation | SMILES
Compound NOT metabolized | CCOc1ccc(NC(C)=O)cc1 [PHENACETIN]
Compound metabolized | CC(C(=O)O)c1ccc2c(c1)Cc1cccnc1O2 (stereo not given) [PRANOPROFEN]
Compound NOT metabolized | O=C(CCCN1CCC(O)(c2ccc(Cl)cc2)CC1)c1ccc(F)cc1 [HALOPERIDOL]

Assay: as §1, with “Z-016” for “Z-030”, “ERS12561815” for “ERS12561829”
Settings: 2 µM

Bacterial Biotransformation | SMILES
Compound NOT metabolized | CCOc1ccc(NC(C)=O)cc1 [PHENACETIN]
Compound metabolized | CC(C(=O)O)c1ccc2c(c1)Cc1cccnc1O2 (stereo not given) [PRANOPROFEN]
Compound NOT metabolized | O=C(CCCN1CCC(O)(c2ccc(Cl)cc2)CC1)c1ccc(F)cc1 [HALOPERIDOL]

Settings: human gut metagenome, 24 h, 2 µM
Remark: another data set of the same source

Bacterial Biotransformation | SMILES
Compound NOT metabolized | CCOc1ccc(NC(C)=O)cc1 [PHENACETIN]
Compound metabolized | CC(C(=O)O)c1ccc2c(c1)Cc1cccnc1O2 (stereo not given) [PRANOPROFEN]
Compound metabolized | O=C(CCCN1CCC(O)(c2ccc(Cl)cc2)CC1)c1ccc(F)cc1 [HALOPERIDOL]

Settings: human gut metagenome, 24 h, 2 µM
Remark: another data set of the same source

Bacterial Biotransformation | SMILES
Compound NOT metabolized | CCOc1ccc(NC(C)=O)cc1 [PHENACETIN]
Compound metabolized | CC(C(=O)O)c1ccc2c(c1)Cc1cccnc1O2 (stereo not given) [PRANOPROFEN]
Compound NOT metabolized | O=C(CCCN1CCC(O)(c2ccc(Cl)cc2)CC1)c1ccc(F)cc1 [HALOPERIDOL]

Settings: human gut metagenome, 24 h, 2 µM
Remark: another data set of the same source

Bacterial Biotransformation | SMILES
Compound NOT metabolized | CCOc1ccc(NC(C)=O)cc1 [PHENACETIN]
Compound metabolized | CC(C(=O)O)c1ccc2c(c1)Cc1cccnc1O2 (stereo not given) [PRANOPROFEN]
Compound NOT metabolized | O=C(CCCN1CCC(O)(c2ccc(Cl)cc2)CC1)c1ccc(F)cc1 [HALOPERIDOL]

Assay: as §1, with “Z-014” for “Z-030”, “rat” for “mouse”, “ERS12561814” for “ERS12561829”
Settings: 2 µM

Bacterial Biotransformation | SMILES
Compound NOT metabolized | CCOc1ccc(NC(C)=O)cc1 [PHENACETIN]
Compound NOT metabolized | CC(C(=O)O)c1ccc2c(c1)Cc1cccnc1O2 (stereo not given) [PRANOPROFEN]
Compound NOT metabolized | O=C(CCCN1CCC(O)(c2ccc(Cl)cc2)CC1)c1ccc(F)cc1 [HALOPERIDOL]

Settings: human gut metagenome, 24 h, 2 µM
Remark: another data set of the same source

Bacterial Biotransformation | SMILES
Compound NOT metabolized | CCOc1ccc(NC(C)=O)cc1 [PHENACETIN]
Compound metabolized | CC(C(=O)O)c1ccc2c(c1)Cc1cccnc1O2 (stereo not given) [PRANOPROFEN]
Compound NOT metabolized | O=C(CCCN1CCC(O)(c2ccc(Cl)cc2)CC1)c1ccc(F)cc1 [HALOPERIDOL]

Settings: human gut metagenome, 24 h, 2 µM
Remark: another data set of the same source

Bacterial Biotransformation | SMILES
Compound NOT metabolized | CCOc1ccc(NC(C)=O)cc1 [PHENACETIN]
Compound metabolized | CC(C(=O)O)c1ccc2c(c1)Cc1cccnc1O2 (stereo not given) [PRANOPROFEN]
Compound NOT metabolized | O=C(CCCN1CCC(O)(c2ccc(Cl)cc2)CC1)c1ccc(F)cc1 [HALOPERIDOL]

Assay: as §1, with “WLS-310” for “Z-030”, “human” for “mouse”, “ERS12561785” for “ERS12561829”
Settings: 2 µM

Bacterial Biotransformation | SMILES
Compound NOT metabolized | CCOc1ccc(NC(C)=O)cc1 [PHENACETIN]
Compound metabolized | CC(C(=O)O)c1ccc2c(c1)Cc1cccnc1O2 (stereo not given) [PRANOPROFEN]
Compound metabolized | O=C(CCCN1CCC(O)(c2ccc(Cl)cc2)CC1)c1ccc(F)cc1 [HALOPERIDOL]

Assay: as §1, with “Z-019” for “Z-030”, “rat” for “mouse”, “ERS12561818” for “ERS12561829”
Settings: 2 µM

Bacterial Biotransformation | SMILES
Compound NOT metabolized | CCOc1ccc(NC(C)=O)cc1 [PHENACETIN]
Compound NOT metabolized | CC(C(=O)O)c1ccc2c(c1)Cc1cccnc1O2 (stereo not given) [PRANOPROFEN]
Compound NOT metabolized | O=C(CCCN1CCC(O)(c2ccc(Cl)cc2)CC1)c1ccc(F)cc1 [HALOPERIDOL]

Assay: as §1, with “Z-023” for “Z-030”, “to” for “to mouse gut”, “ERS12561822” for “ERS12561829”
Settings: 2 µM

Bacterial Biotransformation | SMILES
Compound NOT metabolized | CCOc1ccc(NC(C)=O)cc1 [PHENACETIN]
Compound metabolized | CC(C(=O)O)c1ccc2c(c1)Cc1cccnc1O2 (stereo not given) [PRANOPROFEN]
Compound metabolized | O=C(CCCN1CCC(O)(c2ccc(Cl)cc2)CC1)c1ccc(F)cc1 [HALOPERIDOL]

Settings: human gut metagenome, 24 h, 2 µM
Remark: another data set of the same source

Bacterial Biotransformation | SMILES
Compound NOT metabolized | CCOc1ccc(NC(C)=O)cc1 [PHENACETIN]
Compound metabolized | CC(C(=O)O)c1ccc2c(c1)Cc1cccnc1O2 (stereo not given) [PRANOPROFEN]
Compound NOT metabolized | O=C(CCCN1CCC(O)(c2ccc(Cl)cc2)CC1)c1ccc(F)cc1 [HALOPERIDOL]

Assay: as §1, with “Z-025” for “Z-030”, “rabbit” for “mouse”, “ERS12561824” for “ERS12561829”
Settings: 2 µM

Bacterial Biotransformation | SMILES
Compound NOT metabolized | CCOc1ccc(NC(C)=O)cc1 [PHENACETIN]
Compound metabolized | CC(C(=O)O)c1ccc2c(c1)Cc1cccnc1O2 (stereo not given) [PRANOPROFEN]
Compound NOT metabolized | O=C(CCCN1CCC(O)(c2ccc(Cl)cc2)CC1)c1ccc(F)cc1 [HALOPERIDOL]

Assay: as §1, with “Z-018” for “Z-030”, “pig” for “mouse”, “ERS12561817” for “ERS12561829”
Settings: 2 µM

Bacterial Biotransformation | SMILES
Compound NOT metabolized | CCOc1ccc(NC(C)=O)cc1 [PHENACETIN]
Compound metabolized | CC(C(=O)O)c1ccc2c(c1)Cc1cccnc1O2 (stereo not given) [PRANOPROFEN]
Compound NOT metabolized | O=C(CCCN1CCC(O)(c2ccc(Cl)cc2)CC1)c1ccc(F)cc1 [HALOPERIDOL]

Assay: as §1, with “WLS-086” for “Z-030”, “human” for “mouse”, “ERS12561752” for “ERS12561829”
Settings: 2 µM

Bacterial Biotransformation | SMILES
Compound NOT metabolized | CCOc1ccc(NC(C)=O)cc1 [PHENACETIN]
Compound metabolized | CC(C(=O)O)c1ccc2c(c1)Cc1cccnc1O2 (stereo not given) [PRANOPROFEN]
Compound metabolized | O=C(CCCN1CCC(O)(c2ccc(Cl)cc2)CC1)c1ccc(F)cc1 [HALOPERIDOL]
